What was measured:
[1] = system: adjuvant-induced arthritis; assay: Rat adjuvant-induced arthritis model; assay type: in vivo, male Lewis rat
Method: Mean of 10 readings was recorded.
Drugs were formulated fresh for each administration.

[2] = Ex vivo bioassay of blood concentration after oral administration (fibroblast collagenase / 14C collagen read-out); set-up: species or system male Lewis rats; conditions: 10mg/kg oral, suspension in PBS/Tween, with versus without CyA (0.3mg/kg); 0.5 to 24 hrs, n=6
Method: Compound 1(10mg/kg)±CyA (0.3mg/kg) [in PBS/0.01% Tween 80™] was administered to healthy male Lewis rats (as above). Blood samples (0.5ml into a syringe containing 0.1 ml acid citrate dextroset as anticoagulant) were removed from the ventro-lateral tail vein of the halothane anaestetised rat at t= prebleed, 0.5, 1, 2, 6 and 24 hrs. 3mls methanol was added to each blood sample, mixed and centrifuged at 3000 r.p.m. for 15 minutes (using Beckman GPKR centrifuge). 2.0ml of the methanol supematant was removed and evaporated dry. The pellet was redisolved in 200µl DMSO (dimethylsulphoxide). An aliquot of the solubilised pellet was assayed against fibroblast collagenase using ^14C collagen as substrate, as follows: 15µl fibroblast collagenase at suitable dilution. 100µl collagenase assay buffer* 10µl solubilised pellet 75µl ddH2O 100µl ^14C collagen † Acid citrate dextrose, pH4.5 (13.65g citric acid, 25g tri-sodium citrate & 20g d-glucose per litre of water) * (50mM Tris (pH 7.4), 5mM CaCl2, 0.05% Brij, 0.02% NaN3)
Samples were incubated overnight at 37°C and undigested substrate removed by centrifugation at 11,600 r.p.m. for 15 mins (using Heraeus Biofuge 15). […]
A calibration curve for the test compound of interest was run alongside the blood samples. The concentration of the test compound in the blood was then calculated from the calibration curve.

[3] = Twentyman 1992; cited from earlier work

C=CC[C@H](C(=O)NO)[C@@H](CC(C)C)C(=O)N[C@H](C(=O)NC)C(C)(C)C [Compound 1, 3R-(2,2-Dimethyl-1S-methylcarbamoyl-propylcarbamoyl)-5-methyl-2S-2-propenyl-hexanohydroxamic acid]
reducing the paw volume (swelling) ([1]; Compound 1 at doses at or below 10mg/kg, po, bid (data not shown)): ineffective
effect on arthritis ([1]; given alone, po, bid: Compound 1 (10mg/ml), Cyclosporin A (0.3mg/ml)): very little or no effect
blood concentration of Compound 1 [2]: equivalent

CNC(=O)[C@H](Cc1ccccc1)NC(=O)[C@H](CC(C)C)[C@H](CSc1cccs1)C(=O)NO [Compound 2, [4-(N-Hydroxyamino)-2R-isobutyl-3S-(thiophenylthiomethyl)succinyl]-L-phenylalanine-N-methylamide]
synergy with cyclosporin A ([1]; Compound 2 at 5mg/kg ip, bid, with cyclosporin A at 0.3mg/kg ip): act in synergy

C/C=C/C[C@@H](C)C(=O)[C@H]1C(=O)N[C@@H](C(C)C)C(=O)N(C)CC(=O)N(C)[C@@H](CC(C)C)C(=O)N[C@@H](C(C)C)C(=O)N(C)[C@@H](CC(C)C)C(=O)N[C@@H](C)C(=O)N[C@H](C)C(=O)N(C)[C@@H](CC(C)C)C(=O)N(C)[C@@H](CC(C)C)C(=O)N(C)[C@@H](C(C)C)C(=O)N1C [PSC-833]
potency relative to CyA [3]: approximately 10 fold
